One assay has as its target T1, Aβ1-42 (Homo sapiens, UniProt P05067).
T1 construct: containing 0.2 µM FITC-Aβ(1-42) and 0.8 µM Aβ(1-42)
The experiment in a line: FRET assay of Aβ1-42 oligomer (ADDL) formation. The conditions noted are these: for IC50: assay of Example 1, 0.2 µM FITC-Aβ(1-42) and 0.8 µM Aβ(1-42), 100 mM MgCl2, pH 8.0, 37°C. The format is biochemical. From the text: Fluorescence (or Förster) Resonance Energy Transfer (FRET) is a distance-dependent, non-radiative transfer of energy in which the de-excitation of one fluorophore (donor) is coupled to excitation of another fluorophore (acceptor). FRET occurs if (1) the quantum of energy emitted by a donor fluorophore corresponds to an acceptor fluorophore's excitation energy, (2) the orientations of donor and acceptor transition dipoles are nearly parallel and (3) the donor fluorescent emission spectrum overlaps the acceptor absorption spectrum.
In this assay, Aβ1-42 oligomer formation is monitored by FRET using N-terminal conjugates of fluorescein-Aβ1-42 as both the donor and acceptor fluorophore (fluorescein-fluorescein Ro∼45 Å). […] Inhibition of Aβ1-42 assembly is observed as the absence or attenuation of fluorescein quenching.
FRET and FP assays are performed in 384-well Coming Non-Binding Surface, black, opaque microtiter plates, and the assay buffer consists of 50 mM MOPS-Tris (pH 8.0) with 100 mM MgCl2. […] ADDL assembly is monitored on a Tecan GENios Pro plate reader, exciting at a wavelength of 485 nm and detecting emission at a wavelength of 515 nm. Kinetic traces are collected by recording fluorescence intensity and polarization readings every five minutes over about three to about a six-hour time course. […] Positive control reactions contain all buffer components in the absence of added small molecule or antibody reagents. […]

A further assay concerns the target T2, Aβ1-42 ADDLs (Homo sapiens, UniProt P05067).
T2 construct: Synthetic Aβ1-42 powder was dissolved in 1,1,1,3,3,3 hexafluorisopropanol (HFIP)
The experiment in a line: Alternating Lever Cyclic Ratio (ALCR) rat model. The format is in vivo. Particulars: for Approach Errors Mean / Perseveration Errors Mean: 20 µl via cannula aimed at lateral ventricle, tested about 3 hours following injection, base line error rate equalized to 1.00. The method, then: Preparations of Aβ1-42 ADDLs and a potential therapeutic compounds under the Alternating Lever Cyclic Ratio (ALCR) rat model of AD were tested. This highly sensitive model has been able to detect cognitive deficits due to direct injection of cell-derived Aβ oligomers into rat brain. In this study, a direct injection of ADDLs made from synthetic Aβ1-42 and a putative therapeutic compound under the ALCR procedure were tested.
The ALCR test has proven to be much more sensitive than previously published methods for measuring drug effects on cognitive function. In this task, rats must learn a complex sequence of lever-pressing requirements in order to earn food reinforcement in a two-lever experimental chamber. Subjects must alternate between two levers by switching to the other lever after pressing the first lever enough to get food reward. The exact number of presses required for each food reward changes, first increasing from 2 responses per food pellet up to 56 presses per food pellet, then decreasing back to 2 responses per pellet. Intermediate values were based on the quadratic function, x^2 - x. One cycle was an entire ascending and descending sequence of these lever press requirements (e.g., 2, 6, 12, 20, 30, 42, 56, 56, 42, 30, 20, 12, 6, and 2 presses per food reward). Six such full cycles were presented during each daily session.
Synthetic Aβ1-42 powder was dissolved in 1,1,1,3,3,3 hexafluorisopropanol (HFIP) to afford a solution of Aβ1-42 in HFIP of about 1 mM and allowed to incubate at ambient temperature for about 1 h. The resulting solution was chilled on ice for about 5-10 min, then aliquoted into eppendorf tubes to provide about 50 µl of solution per tube. The tubes were then placed in a chemical fume hood and allowed to stand overnight to allow the HFIP to evaporate under a slow stream of nitrogen. To removed final traces of HFIP, the tubes were subjected to two SpeedVac cycles of 15 min at room temperature and about 15 to 25 in Hg of vacuum. The resulting films of monomerized Aβ1-42 peptide were stored over desiccant at -80 °C until used.
A tube of monomerized Aβ1-42 peptide was warmed to room temperature and the Aβ1-42 peptide was dissolved in anhydrous DMSO to afford a peptide stock DMSO solution containing about 10 µM to about 100 µM Aβ1-42 peptide in DMSO.
2 µl of a 20 mM stock solution of test compound in anhydrous DMSO is added to 998 µl of neural basal media (phenol red free, Gibco 12348-017) to give a compound neural basal media solution containing 40 µM of test compound in neural basal media.
For the Aβ1-42 peptide only treatment, peptide stock DMSO solution is added to 37 °C neural basal to obtain the requisite Aβ1-42 peptide monomer concentration, provided that the maximum concentration of DMSO is 1% or less, and the tube is vortexed for 30 to 60 seconds, spun down briefly in a microfuge and incubated at 37 °C for 15 min prior to the start of injections.
For the Aβ1-42 peptide plus test compound treatment, peptide stock DMSO solution is added to 37 °C compound neural basal media solution to obtain the requisite Aβ1-42 peptide monomer concentration, provided that the maximum concentration of DMSO is 1% or less, and the tube is vortexed for 30 to 36 seconds, spun down briefly in a microfuge and incubated at 37 °C for 15 min prior to the start of injections.
For control injections, compound neural basal media solution is incubated at 37 °C for 15 min prior to the start of injections.
Rats: Rats were trained under ALCR until their error rates were stable. Once the rats were placed upon the final ALCR procedure, training sessions were conducted 7 days each week until the end of the study.
Surgery: All rats received a single 28 ga cannula, which was permanently affixed to the skull, and aimed at the lateral ventricle. Half the rats received cannula in the right ventricle and half received cannula in the left ventricle. Rats were allowed 5 days to recover from surgery before training resumed. […]

Setting [1] is: compound combined with Aβ1-42 ADDLs.

As a reminder, the IC50 is the concentration that inhibits the measured activity by half. A high value points to weaker potency.

T2 sequence (P05067 672-713 limits assumed): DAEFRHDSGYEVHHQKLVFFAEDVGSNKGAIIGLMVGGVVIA
T1 sequence (P05067 672-713 limits assumed): as above

As for `NCCCS(=O)(=O)O` [Alzhemed, 3-amino-1-propanesulfonic acid, reference compound], at Aβ1-42 (standard FRET assay conditions of Example 1, comparative example, FIG 2), the “inhibition of Aβ1-42 monomer assembly into Aβ oligomers” value is “inability”.
In the case of `O=C(C/C(=N/NC(=O)c1ccccc1O)C(F)(F)F)c1cccs1` [Compound 2, 2-Hydroxy-benzoic acid [3-oxo-3-thiophen-2-yl-1-trifluoromethyl-prop-(Z)-ylidene]-hydrazide], it took 26 µM to reach half-maximal inhibition at Aβ1-42 (IC50).
`O=C(C/C(=N/NC(=O)c1ccccc1O)C(F)(F)F)c1ccco1` [Compound 3, 2-Hydroxy-benzoic acid [3-oxo-3-furan-2-yl-1-trifluoromethyl-prop-(Z)-ylidene)-hydrazide] showed an IC50 on Aβ1-42 of 13.5 µM.
Consider `CCOC(=O)c1c(NC(=O)C(=O)N/N=C/c2ccccc2O)sc2c1CCC(C)C2` (centres unmarked) [Compound 7, 2-{[1-(2-Hydroxyphenyl)-meth-(E)-ylidene-hydrazinooxalyl]-amino} -6-methyl-4,5,6,7-tetrahydro-benzo[b]thiophene-3-carboxylic acid ethyl ester], for which the “inhibition of Aβ1-42 oligomer assembly” value against Aβ1-42 (1 mM Aβ1-42 total monomer, 100 mM MgCl2, compound ranging from 0.05 to 3 mM, FIG. 1) is “dose dependent inhibition”.
For `CCC1=NN(C(=O)C(=O)Nc2ccccc2OC)C(O)(C(F)(F)F)C1` (centres unmarked) [Compound 8, 2-(3-ethyl-5-hydroxy-5-(trifluoromethyl)-4,5-dihydro-1H-pyrazol-1-yl)-N-(2-methoxyphenyl)-2-oxoacetamide], on Aβ1-42, the IC50 is 7 µM.
At Aβ1-42, `CCCC1=NN(C(=O)C(=O)Nc2ccccc2OC)C(O)(C(F)(F)F)C1` (centres unmarked) [Compound 9, 2-(5-hydroxy-3-propyl-5-(trifluoromethyl)-4,5-dihydro-1H-pyrazol-1-yl)-N-(2-methoxyphenyl)-2-oxoacetamide] displayed an IC50 of 6.4 µM.
`COc1ccccc1NC(=O)C(=O)N1N=C(C(C)C)CC1(O)C(F)(F)F` (centres unmarked) [Compound 10, 2-(5-hydroxy-3-isopropyl-5-(trifluoromethyl)-4,5-dihydro-1H-pyrazol-1-yl)-N-(2-methoxyphenyl)-2-oxoacetamide] displayed an IC50 against Aβ1-42 of 24.3 µM.
On the same count and under the same terms, the same measure for `CCCC1=NN(C(=O)c2ccccc2O)C(O)(C(F)(F)F)C1` (centres unmarked) [Compound 12, (5-hydroxy-3-propyl-5-(trifluoromethyl)-4,5-dihydro-1H-pyrazol-1-yl)(2-hydroxyphenyl)methanone]: 8.5 µM; for `CCC1=NN(C(=O)C(=O)Nc2ccc(Br)cc2)C(O)(C(F)(F)F)C1` (centres unmarked) [Compound 13, N-(4-bromophenyl)-2-(3-ethyl-5-hydroxy-5-(trifluoromethyl)-4,5-dihydro-1H-pyrazol-1-yl)-2-oxoacetamide]: 17 µM; for `CCCC1=NN(C(=O)C(=O)NCCc2ccccc2)C(O)(C(F)(F)F)C1` (centres unmarked) [Compound 14, 2-(5-hydroxy-3-propyl-5-(trifluoromethyl)-4,5-dihydro-1H-pyrazol-1-yl)-2-oxo-N-phenethylacetamide]: 34.4 µM.
`CCCC1=NN(C(=O)C(=O)Nc2ccc(Br)cc2)C(O)(C(F)(F)F)C1` (centres unmarked) [Compound 15, N-(4-bromophenyl)-2-(5-hydroxy-3-propyl-5-(trifluoromethyl)-4,5-dihydro-1H-pyrazol-1-yl)-2-oxoacetamide] yielded an IC50 at Aβ1-42 of 7.8 µM.
Same read-out and setting: the same measure for `CCCCC1=NN(C(=O)C(=O)NCCc2ccccc2)C(O)(C(F)(F)F)C1` (centres unmarked) [Compound 16, 2-(3-butyl-5-hydroxy-5-(trifluoromethyl)-4,5-dihydro-1H-pyrazol-1-yl)-2-oxo-N-phenethylacetamide]: 38.8 µM.
`CC(C)CC1=NN(C(=O)C(=O)NCCc2ccccc2)C(O)(C(F)(F)F)C1` (centres unmarked) [Compound 17, 2-(5-hydroxy-3-isobutyl-5-(trifluoromethyl)-0,5-dihydro-1H-pyrazol-1-yl)-2-oxo-N-phenethylacetamide] came in with an IC50 against Aβ1-42 of 41.3 µM.
Same read-out and setting: the value for `CCCCCC1=NN(C(=O)C(=O)Nc2ccc(Br)cc2)C(O)(C(F)(F)F)C1` (centres unmarked) [Compound 18, N-(4-bromophenyl)-2-(5-hydroxy-3-pentyl-5-(trifluoromethyl)-4,5-dihydro-1H-pyrazol-1-yl)-2-oxoacetamide] was 11.6 µM; that for `CCCCCC1=NN(C(=O)C(=O)Nc2ccc(OC)cc2)C(O)(C(F)(F)F)C1` (centres unmarked) [Compound 19, 2-(5-hydroxy-3-pentyl-5-(trifluoromethyl)-4,5-dihydro-1H-pyrazol-1-yl)-N-(4-methoxyphenyl)-2-oxoacetamide] was 8.7 µM; that for `CC(C)CCC1=NN(C(=O)C(=O)NCCc2ccccc2)C(O)(C(F)(F)F)C1` (centres unmarked) [Compound 20, 2-(5-hydroxy-3-isopentyl-5-(trifluoromethyl)-4,5-dihydro-1H-pyrazol-1-yl)-2-oxo-N-phenethylacetamide] was 17 µM.
Same read-out and setting: the value for `CCCCCCC1=NN(C(=O)C(=O)Nc2ccc(OC)cc2)C(O)(C(F)(F)F)C1` (centres unmarked) [Compound 22, 2-(3-hexyl-5-hydroxy-5-(trifluoromethyl)-4,5-dihydro-1H-pyrazol-1-yl)-N-(4-methoxyphenyl)-2-oxoacetamide] was 8.2 µM; that for `COc1ccccc1NC(=O)C(=O)N1N=C(C2CCCCC2)CC1(O)C(F)(F)F` (centres unmarked) [Compound 23, 2-(3-cyclohexyl-5-hydroxy-5-(trifluoromethyl)-4,5-dihydro-1H-pyrazol-1-yl)-N-(2-methoxyphenyl)-2-oxoacetamide] was 29.1 µM.
With `O=C(N/N=C/c1c(O)ccc2ccccc12)c1ccccc1O` [Compound 24, (E)-2-hydroxy-N'-((2-hydroxynaphthalen-1-yl)methylene) benzohydrazide], the “increase in Perseveration Errors” value on Aβ1-42 ADDLs (combined with the requisite concentration of Aβ1-42 ADDLs, result in words) is “eliminated the increase in Perseveration Errors”. At Aβ1-42 ADDLs (setting [1]), the “Approach Errors Mean” value was 1.00 and the “Perseveration Errors Mean” value is recorded as 0.92. Further, on Aβ1-42 ADDLs (given alone, result in words), the error rates entry is “did not increase error rates”. Also, at Aβ1-42 ADDLs (injectate given alone), the “Approach Errors Mean” value worked out at 0.96 and the “Perseveration Errors Mean” value is recorded as 0.95.
The molecule `O=C(N/N=C/c1cc(Br)cc(Br)c1O)c1ccccc1O` [Compound 26, (E)-N'-(3,5-dibromo-2-hydroxybenzylidene)-2-hydroxybenzohydrazide] displayed an IC50 at Aβ1-42 of 5.8 µM.
Same read-out and setting: the same measure for `O=C(N/N=C/c1cc(Br)ccc1O)c1ccccc1O` [Compound 27, (E)-N'-(5-bromo-2-hydroxybenzylidene)-2-hydroxybenzohydrazide]: 19.3 µM.

Source of the values: patent EP2173340B1, “METHODS OF ENHANCING COGNITIVE FUNCTION USING NON-PEPTIDIC COMPOUNDS” (Acumen Pharmaceuticals, Inc., priority 2007, dated 2009).
